Data from US7880007B2, “Bicyclic substituted phenyl piperidine modulators of muscarinic receptors” (Vertex Pharmaceuticals Incorporated, priority 2004, dated 2011).

What was measured:
Assay type in all cases: cell-based
M1 muscarinic receptor = molecular target: T1, M1 muscarinic receptor (Homo sapiens, UniProt P11229); test: Functional mobilization of intracellular calcium (FLIPR), M1-CHO cells; conditions: for M1 Activity: M1-CHO cells, calcium mobilization (FLIPR)
T1 construct: expressed in transfected cells; host or cells: CHO (M1-CHO)
T1 sequence (P11229 1-460): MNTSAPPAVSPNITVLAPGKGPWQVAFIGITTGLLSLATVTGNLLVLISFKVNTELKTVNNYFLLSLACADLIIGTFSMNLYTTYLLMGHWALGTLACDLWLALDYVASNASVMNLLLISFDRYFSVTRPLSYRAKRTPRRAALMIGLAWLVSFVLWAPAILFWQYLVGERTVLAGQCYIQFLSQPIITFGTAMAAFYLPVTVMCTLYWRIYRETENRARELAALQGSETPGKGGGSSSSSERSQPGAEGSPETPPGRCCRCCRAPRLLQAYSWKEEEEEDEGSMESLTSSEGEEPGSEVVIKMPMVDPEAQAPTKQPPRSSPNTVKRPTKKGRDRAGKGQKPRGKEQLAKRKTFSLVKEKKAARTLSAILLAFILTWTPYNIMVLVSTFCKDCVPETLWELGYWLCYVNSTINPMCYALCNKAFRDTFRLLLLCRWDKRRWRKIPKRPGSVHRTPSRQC
Description: (§1) Functional Mobilization of Intracellular Calcium to Determine Muscarinic Receptor Activity:
(§2) CHO cells expressing muscarinic receptors (M1 to M5) are grown as monolayers in tissue culture flasks at 37° C. in a humidified atmosphere containing 5% CO2 and passaged every 3-5 days. The growth media is Dulbecco's modified eagles medium (DMEM, Gibco Cat #12430-054), containing 25 mM Hepes and supplemented with Fetal Bovine Serum (Hyclone, cat #SH30071.03), 0.1 mM of MEM non-essential amino acids (GIBCO, Cat #11140-050), 1 mM MEM Sodium Pyruvate (GIBCO Cat #11360-070) and 100 units/ml of Penicillin G and 100 μg/ml of Streptomycin (GIBCO Cat #15140-122). The recombinant muscarinic receptor cell lines are grown under antibiotic pressure with media containing 25 μg/ml zeocin and 500 μg/ml G418 (M1-CHO), 4 μg/ml puromycin, 50 μg/ml zeocin and 2.5 μg/ml blasticidin (M2 and M4-CHO) or 50 μg/ml zeocin and 4 μg/ml puromycin (M3 and M5-CHO).
(§3) Cells are harvested at 80-90% confluence using Versene (GIBCO Cat #15040-066), collected by centrifugation and seeded 18-24 hrs prior to running the calcium assay at a density of 5,000-10,000 cells/well in […], clear-bottomed 384-well plates (BD Biocoat, poly-D-lysine, Cat #356663). The day of the experiment, the cells are washed with a plate washer (Bioteck Instruments, ELX 405) using bath 1 buffer (140-mM NaCl, 4.5-mM KCl, 2-mM CaCl2, 1-mM MgCl2, 10-mM Hepes-Na, 10-mM Glucose, pH 7.4, with NaOH) containing 1 mM Probenecid. Next, the calcium dye Fluo-3 (25 μl/well of Fluo-3 AM at 4 μM, Molecular Probes F-1241, in Bath 1 buffer containing 1 mM Probenecid) is added to the 25 μl of Bath 1 remaining in each well after the plate wash and the dye is loaded at 37° C. in the tissue culture incubator for 60-90 min. The fluorescent dye is removed using the plate washer with Bath 1 containing 1 mM Probenecid, leaving 25 μl/well of this solution after the wash. Alternatively, cells can be loaded with the calcium indicator from Molecular Devices (Calcium 3 Assay Reagents, Cat #R7181) adding 5 μl of a 5× solution dye in Bath 1 containing 1 mM Probenecid (10 ml per dye flask cat #R7182 to generate a solution 20×) to 20 μl of the same buffer. After loading for 60 min, the experiment can be run without having to remove the dye.
(§4) Compounds are prepared at a 2× fold concentration in a 96-well plate (round bottom, Costar Corning cat #3656), by reconstituting the pre-spotted compounds in bath 1 containing 1 mM probenecid. The final concentration DMSO is 0.5%, and the amount of DMSO is normalized across the assay plate. To determine an agonist action of the compounds on muscarinic receptors, the reconstituted compounds are added (25 μl compound/well) to the cell assay plate (containing 25 μl/well) using the multi-channel robotic system of the FLIPR 3 Instrument (Molecular Devices, Sunnyvale, Calif.). To determine a functional inhibitory action of the compounds on muscarinic receptors, the reconstituted compounds are added (25 μl compound/well) to the assay plate and pre-incubated for 15 min prior to adding 25 μl of Carbachol at 3× the EC80 for each muscarinic subtype. Alternatively, the compounds can be co-applied simultaneously with the agonist. In both assay modes, the fluorescence is recorded for 60 sec (excitation wavelength is […] and emission wavelength 540 nm) using the FLIPR 3 instrument.
(§5) The potency, efficacy and selectivity of the muscarinic compounds were evaluated by screening the compound activity across the whole family (M1 to M5 cells). Compounds were also screened for activity on other proteins such as other GPCRs and ion channels to determine selectivity on M4 receptors.
(§6) Examples of activities and efficacies of the muscarinic compounds of formulae (I, Ia, Ib, and II) on modulating M1, M2, M3 and M4 receptors are shown below in Table 3. […]

M2 muscarinic receptor = molecular target: T2, M2 muscarinic receptor (Homo sapiens, UniProt P08172); test: Functional mobilization of intracellular calcium (FLIPR), M2-CHO cells; conditions: for M2 Activity: M2-CHO cells, calcium mobilization (FLIPR)
T2 construct: expressed in transfected cells; host or cells: CHO (M2-CHO)
T2 sequence (P08172 1-466): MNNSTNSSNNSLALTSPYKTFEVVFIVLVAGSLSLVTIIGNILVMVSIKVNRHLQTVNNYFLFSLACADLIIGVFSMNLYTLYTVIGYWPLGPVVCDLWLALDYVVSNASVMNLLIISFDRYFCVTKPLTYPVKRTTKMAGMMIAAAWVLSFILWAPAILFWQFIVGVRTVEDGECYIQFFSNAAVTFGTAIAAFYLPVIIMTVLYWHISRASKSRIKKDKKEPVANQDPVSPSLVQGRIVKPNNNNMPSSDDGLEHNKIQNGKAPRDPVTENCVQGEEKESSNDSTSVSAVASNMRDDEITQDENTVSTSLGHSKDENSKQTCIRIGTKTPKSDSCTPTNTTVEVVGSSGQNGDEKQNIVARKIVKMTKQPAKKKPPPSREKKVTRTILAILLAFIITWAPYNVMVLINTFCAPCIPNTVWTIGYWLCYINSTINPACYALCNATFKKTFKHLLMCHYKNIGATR
Description: as §1, §2, §3, §4, §5, §6

M4 muscarinic receptor = molecular target: T3, M4 muscarinic receptor (Homo sapiens, UniProt P08173); test: Functional mobilization of intracellular calcium (FLIPR), M4-CHO cells; conditions: for M4 Activity: M4-CHO cells, calcium mobilization (FLIPR)
T3 construct: expressed in transfected cells; host or cells: CHO (M4-CHO)
T3 sequence (P08173 1-479): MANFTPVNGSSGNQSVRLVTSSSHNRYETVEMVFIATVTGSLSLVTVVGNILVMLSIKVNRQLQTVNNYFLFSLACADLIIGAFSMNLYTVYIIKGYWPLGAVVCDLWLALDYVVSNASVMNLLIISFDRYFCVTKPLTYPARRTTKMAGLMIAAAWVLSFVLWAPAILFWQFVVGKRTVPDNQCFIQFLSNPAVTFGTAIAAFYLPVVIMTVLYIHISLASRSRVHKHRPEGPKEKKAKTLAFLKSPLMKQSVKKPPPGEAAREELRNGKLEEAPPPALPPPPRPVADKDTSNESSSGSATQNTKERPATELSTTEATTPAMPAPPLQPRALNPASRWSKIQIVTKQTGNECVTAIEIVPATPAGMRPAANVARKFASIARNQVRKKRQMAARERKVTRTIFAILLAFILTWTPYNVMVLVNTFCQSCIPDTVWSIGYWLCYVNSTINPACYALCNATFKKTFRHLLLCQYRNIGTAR
Description: as §1, §2, §3, §4, §5, §6

[1] = 100% efficacy = maximum response obtained with the Carbachol control
[2] = 100% efficacy is the maximum response obtained with the Carbachol control

| SMILES | Emax (M1 muscarinic receptor; [1]) | M1 Activity (M1 muscarinic receptor) | Emax (M2 muscarinic receptor; [1]) | M2 Activity (M2 muscarinic receptor) | Emax (M4 muscarinic receptor; [1]) | M4 Activity (M4 muscarinic receptor) | Emax (M1 muscarinic receptor; [2]) | Emax (M2 muscarinic receptor; [2]) | Emax (M4 muscarinic receptor; [2]) |
| --- | --- | --- | --- | --- | --- | --- | --- | --- | --- |
| COc1ccc(Cl)cc1C1(OC)CCN(C2CC3CCC2C3)CC1 (stereo not drawn) [Compound 308] | < 25% | + (activity was measured to be greater than 5.0 μM) | < 25% | + (activity was measured to be greater than 5.0 μM) | 25 to 100% | ++ (activity was measured to be from 1.0 μM to 5.0 μM) |  |  |  |
| COc1ccc(Cl)cc1C1(OC)CCN(C[C@@H]2C[C@H]3C=C[C@H]2C3)CC1 [Compound 286] | 25 to 100% | + (activity was measured to be greater than 5.0 μM) | < 25% | + (activity was measured to be greater than 5.0 μM) | 25 to 100% | +++ (activity was measured to be less than 1.0 μM) |  |  |  |
| COc1ccc(Cl)cc1C1(OC)CCN(C2CC3CCC(C3)C2)CC1 (stereo not drawn) [Compound 288] | 25 to 100% | ++ (activity was measured to be from 1.0 μM to 5.0 μM) | < 25% | + (activity was measured to be greater than 5.0 μM) | 25 to 100% | +++ (activity was measured to be less than 1.0 μM) |  |  |  |
| Cc1ccc(F)cc1C1CCN(C2C[C@H]3CC[C@H](C2)C3)CC1 (stereo partly drawn) [Compound 385] |  | ++ (activity was measured to be from 1.0 μM to 5.0 μM) |  | + (activity was measured to be greater than 5.0 μM) |  | +++ (activity was measured to be less than 1.0 μM) | 25 to 100% | < 25% | 25 to 100% |
| COc1ccc(Cl)cc1C1(OC)CCN(C2CCCCC2)CC1 [Compound 203] | 25 to 100% | + (activity was measured to be greater than 5.0 μM) | < 25% | + (activity was measured to be greater than 5.0 μM) | 25 to 100% | ++ (activity was measured to be from 1.0 μM to 5.0 μM) |  |  |  |
| COc1ccc(Cl)cc1C1CCN(CC2CCCCC2)CC1 [Compound 91] | < 25% | ++ (activity was measured to be from 1.0 μM to 5.0 μM) | < 25% | + (activity was measured to be greater than 5.0 μM) | 25 to 100% | ++ (activity was measured to be from 1.0 μM to 5.0 μM) |  |  |  |
| CCCC1CCC(N2CCC(C#N)(c3ccccc3OC)CC2)CC1 (stereo not drawn) [Compound 335] | 25 to 100% | ++ (activity was measured to be from 1.0 μM to 5.0 μM) | < 25% | + (activity was measured to be greater than 5.0 μM) | 25 to 100% | ++ (activity was measured to be from 1.0 μM to 5.0 μM) |  |  |  |
| COc1ccccc1C1(C#N)CCN(C2CC3CCC2C3)CC1 (stereo not drawn) [Compound 136] | 25 to 100% | + (activity was measured to be greater than 5.0 μM) | < 25% | + (activity was measured to be greater than 5.0 μM) | 25 to 100% | ++ (activity was measured to be from 1.0 μM to 5.0 μM) |  |  |  |
| COc1ccc(Cl)cc1C1(O)CCN(C2CCOCC2)CC1 [Compound 304] | < 25% | + (activity was measured to be greater than 5.0 μM) | < 25% | + (activity was measured to be greater than 5.0 μM) | 25 to 100% | + (activity was measured to be greater than 5.0 μM) |  |  |  |
| CCOC(=O)N1C2CCC1CC(N1CCC(C#N)(c3ccccc3OC)CC1)C2 (stereo not drawn) [Compound 131] | 25 to 100% | +++ (activity was measured to be less than 1.0 μM) | < 25% | + (activity was measured to be greater than 5.0 μM) | 25 to 100% | +++ (activity was measured to be less than 1.0 μM) |  |  |  |
| COc1ccccc1C1(C#N)CCN(C2CCCCCC2)CC1 [Compound 279] | < 25% | ++ (activity was measured to be from 1.0 μM to 5.0 μM) | < 25% | + (activity was measured to be greater than 5.0 μM) | 25 to 100% | ++ (activity was measured to be from 1.0 μM to 5.0 μM) |  |  |  |
| COc1ccc(Cl)cc1C1(O)CCN(C2CCC3CCC2C3)CC1 (stereo not drawn) [Compound 228] | < 25% | + (activity was measured to be greater than 5.0 μM) | < 25% | + (activity was measured to be greater than 5.0 μM) | 25 to 100% | ++ (activity was measured to be from 1.0 μM to 5.0 μM) |  |  |  |
| COc1ccc(Cl)cc1C1(OC)CCN(C2CCOCC2)CC1 [Compound 201] | < 25% | + (activity was measured to be greater than 5.0 μM) | < 25% | + (activity was measured to be greater than 5.0 μM) | < 25% | + (activity was measured to be greater than 5.0 μM) |  |  |  |
